In patent publication US10988477B2 (Merck Patent GmbH, priority 2018, dated 2021):

Experiments:
[1] = molecular target: GCN2 kinase (Homo sapiens, UniProt Q9P2K8); test: GCN2 enzyme inhibition assay (Transcreener ADP2 fluorescence polarization); assay type: biochemical; details: Enzyme activity for compounds of Formula IV; Ki(app), 280 μM ATP, 25° C.
In short: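 ADP formation read by Transcreener FP after a 1 h, 25 °C kinase reaction containing 280 μM ATP, 200 μM (RS)7 substrate and 4 nM GCN2, pH 7.5 Tris buffer. Compounds (0–8 μM final) were added 10 min before ATP. Percent inhibition gave IC50 and apparent Ki via tight-binding fit.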

[2] = molecular target: intracellular GCN2 (phosphorylation of the GCN2 substrate eIF2α) (Homo sapiens, UniProt Q9P2K8); test: GCN2 cellular inhibition assay (AlphaScreen SureFire P-eIF2α Ser51, borrelidin-treated U2OS cells); assay type: cell-based; details: compounds of Formula IV; biomarker assay, phosphorylated eIF2α Ser51 in borrelidin-treated U2OS cells
Chain of intracellular GCN2 (phosphorylation of the GCN2 substrate eIF2α) (Q9P2K8 whole entry): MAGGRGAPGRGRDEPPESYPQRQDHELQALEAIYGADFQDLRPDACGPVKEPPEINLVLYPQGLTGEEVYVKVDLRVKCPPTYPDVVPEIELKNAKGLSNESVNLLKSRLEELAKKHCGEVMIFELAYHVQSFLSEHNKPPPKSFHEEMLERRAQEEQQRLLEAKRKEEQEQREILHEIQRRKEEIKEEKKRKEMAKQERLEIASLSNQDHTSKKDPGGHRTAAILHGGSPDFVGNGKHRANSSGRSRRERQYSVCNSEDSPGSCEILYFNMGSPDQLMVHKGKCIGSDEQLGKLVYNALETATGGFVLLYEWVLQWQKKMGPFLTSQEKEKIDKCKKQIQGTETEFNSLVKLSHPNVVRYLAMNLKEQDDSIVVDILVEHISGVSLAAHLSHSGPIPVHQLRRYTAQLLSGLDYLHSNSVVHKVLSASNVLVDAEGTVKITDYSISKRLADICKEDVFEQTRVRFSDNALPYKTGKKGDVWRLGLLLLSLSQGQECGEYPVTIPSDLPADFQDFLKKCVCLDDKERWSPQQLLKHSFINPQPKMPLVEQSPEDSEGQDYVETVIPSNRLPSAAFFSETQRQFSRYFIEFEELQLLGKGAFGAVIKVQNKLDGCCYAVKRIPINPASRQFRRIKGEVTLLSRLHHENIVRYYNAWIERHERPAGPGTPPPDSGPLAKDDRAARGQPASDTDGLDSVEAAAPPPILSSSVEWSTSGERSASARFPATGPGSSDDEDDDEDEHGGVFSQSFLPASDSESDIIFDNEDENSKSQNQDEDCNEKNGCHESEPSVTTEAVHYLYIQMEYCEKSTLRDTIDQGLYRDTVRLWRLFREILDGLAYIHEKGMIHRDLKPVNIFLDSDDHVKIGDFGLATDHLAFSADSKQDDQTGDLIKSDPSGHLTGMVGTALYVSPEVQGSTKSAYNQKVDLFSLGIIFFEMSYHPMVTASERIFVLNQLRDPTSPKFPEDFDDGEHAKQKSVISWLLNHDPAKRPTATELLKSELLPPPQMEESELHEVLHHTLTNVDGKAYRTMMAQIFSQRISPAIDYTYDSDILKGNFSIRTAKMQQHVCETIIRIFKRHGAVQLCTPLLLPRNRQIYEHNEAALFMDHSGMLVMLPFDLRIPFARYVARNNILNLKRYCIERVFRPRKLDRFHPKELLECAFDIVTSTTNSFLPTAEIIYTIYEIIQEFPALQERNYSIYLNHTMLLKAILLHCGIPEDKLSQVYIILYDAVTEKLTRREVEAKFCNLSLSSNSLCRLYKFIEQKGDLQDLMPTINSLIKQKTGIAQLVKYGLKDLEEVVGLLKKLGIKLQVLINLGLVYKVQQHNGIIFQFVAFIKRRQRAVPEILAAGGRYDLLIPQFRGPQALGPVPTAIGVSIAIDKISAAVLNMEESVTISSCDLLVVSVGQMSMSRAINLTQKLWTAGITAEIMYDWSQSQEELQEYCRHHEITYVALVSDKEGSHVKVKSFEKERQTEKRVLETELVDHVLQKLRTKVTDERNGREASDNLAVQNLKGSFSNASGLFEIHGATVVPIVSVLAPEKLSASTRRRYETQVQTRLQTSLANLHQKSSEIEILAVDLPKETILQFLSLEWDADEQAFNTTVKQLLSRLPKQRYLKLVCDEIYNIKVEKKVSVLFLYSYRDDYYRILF
In short: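 U2OS cells adhered overnight, then treated with compounds (4-fold serial dilutions from 40 μM final) plus borrelidin 10 μM final for 1 h at 37 °C. Lysate eIF2α Ser51 phosphorylation measured by AlphaScreen SureFire. Percent inhibition calculated relative to borrelidin-only wells.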

Chain of GCN2 kinase (Q9P2K8 whole entry): as above

| Compound | Ki [1] [nM] | IC50 [2] [nM] |
| --- | --- | --- |
| CC1C(C(N)=O)CCN1c1ccnc(-c2cnc3cnc(C(F)(F)F)cn23)n1 (single isomer, unassigned) [IV-614, 2-Methyl-1-(2-(6-(trifluoromethyl)imidazo[1,2-a]pyrazin-3-yl)pyrimidin-4-yl)pyrrolidine-3-carboxamide] | 100 to 1000 | > 5000 |
| CC1C(C(N)=O)CCN1c1ccnc(-c2cnc3cnc(C(F)(F)F)cn23)n1 (single isomer, unassigned) [IV-615, 2-Methyl-1-(2-(6-(trifluoromethyl)imidazo[1,2-a]pyrazin-3-yl)pyrimidin-4-yl)pyrrolidine-3-carboxamide] | 10 to 100 | 500 to 5000 |
| OC1CCN(c2ccnc(-c3cnc4cnc(C(F)(F)F)cn34)n2)CC1c1cn[nH]c1 (single isomer, unassigned) [IV-624, 3-(1H-Pyrazol-4-yl)-1-(2-(6-(trifluoromethyl)imidazo[1,2-a]pyrazin-3-yl)pyrimidin-4-yl)piperidin-4-ol] | 10 to 100 | 500 to 5000 |
| FC(F)(F)c1cn2c(-c3nccc(N4CCC(c5c[nH]nc5C(F)(F)F)C4)n3)cnc2cn1 (single isomer, unassigned) [IV-628, 6-(Trifluoromethyl)-3-(4-(3-(3-(trifluoromethyl)-1H-pyrazol-4-yl)pyrrolidin-1-yl)pyrimidin-2-yl)imidazo[1,2-a]pyrazine] | 10 to 100 | 500 to 5000 |
| CP(C)(=O)C1CC(c2cn[nH]c2)CN(c2ccnc(-c3cnc4cnc(C(F)(F)F)cn34)n2)C1 (single isomer, unassigned) [IV-632, (5-(1H-Pyrazol-4-yl)-1-(2-(6-(trifluoromethyl)imidazo[1,2-a]pyrazin-3-yl)pyrimidin-4-yl)piperidin-3-yl)dimethylphosphine oxide] | 10 to 100 | > 5000 |
| CP(C)(=O)C1CC(c2cn[nH]c2)CN(c2ccnc(-c3cnc4cnc(C(F)(F)F)cn34)n2)C1 (single isomer, unassigned) [IV-633, (5-(1H-Pyrazol-4-yl)-1-(2-(6-(trifluoromethyl)imidazo[1,2-a]pyrazin-3-yl)pyrimidin-4-yl)piperidin-3-yl)dimethylphosphine oxide] | 10 to 100 | > 5000 |
| CC1CN(c2ccnc(-c3cnc4cnc(C(F)(F)F)cn34)n2)C(C)C(c2c[nH]cn2)O1 (single isomer, unassigned) [IV-638, 2-(1H-Imidazol-4-yl)-3,6-dimethyl-4-(2-(6-(trifluoromethyl)imidazo[1,2-a]pyrazin-3-yl)pyrimidin-4-yl)morpholine] | 100 to 1000 | > 5000 |
| CC1CN(c2ccnc(-c3cnc4cnc(C(F)(F)F)cn34)n2)C(C)C(c2c[nH]cn2)O1 (single isomer, unassigned) [IV-639, 2-(1H-Imidazol-4-yl)-3,6-dimethyl-4-(2-(6-(trifluoromethyl)imidazo[1,2-a]pyrazin-3-yl)pyrimidin-4-yl)morpholine] | < 10 | < 500 |
| CC1CN(c2cncc(-c3cnc4cnc(C(F)(F)F)cn34)n2)C(C)C(c2cn[nH]c2)N1 (single isomer, unassigned) [IV-649, 3-(6-(2,5-Dimethyl-3-(1H-pyrazol-4-yl)piperazin-1-yl)pyrazin-2-yl)-6-(trifluoromethyl)imidazo[1,2-a]pyrazine] | 100 to 1000 | > 5000 |
| CC1CN(c2cncc(-c3cnc4cnc(C(F)(F)F)cn34)n2)C(C)C(c2cn[nH]c2)N1 (single isomer, unassigned) [IV-650, 3-(6-(2,5-Dimethyl-3-(1H-pyrazol-4-yl)piperazin-1-yl)pyrazin-2-yl)-6-(trifluoromethyl)imidazo[1,2-a]pyrazine] | < 10 | 500 to 5000 |
| CC1CN(c2ccnc(-c3cnc4cnc(C(F)(F)F)cn34)n2)CC(c2cn[nH]c2Cl)N1 (single isomer, unassigned) [IV-651, 3-[4-[3-(5-Chloro-1H-pyrazol-4-yl)-5-methyl-piperazin-1-yl]pyrimidin-2-yl]-6-(trifluoromethyl)imidazo[1,2-a]pyrazine] | < 10 | < 500 |

Second part, the compound after the results:

| Ki [1] [nM] | IC50 [2] [nM] | Compound |
| --- | --- | --- |
| < 10 | < 500 | Fc1n[nH]cc1C1CCCN(c2ccnc(-c3cnc4cnc(C(F)(F)F)cn34)n2)C1 (single isomer, unassigned) [IV-491, 3-(4-(3-(3-Fluoro-1H-pyrazol-4-yl)piperidin-1-yl)pyrimidin-2-yl)-6-(trifluoromethyl)imidazo[1,2-a]pyrazine] |
| < 10 | < 500 | Fc1n[nH]cc1C1CCCN(c2ccnc(-c3cnc4cnc(C(F)(F)F)cn34)n2)C1 (single isomer, unassigned) [IV-492, 3-(4-(3-(3-Fluoro-1H-pyrazol-4-yl)piperidin-1-yl)pyrimidin-2-yl)-6-(trifluoromethyl)imidazo[1,2-a]pyrazine] |
| < 10 | 500 to 5000 | CC1C(C(N)=O)CCCN1c1ccnc(-c2cnc3cnc(C(F)(F)F)cn23)n1 (single isomer, unassigned) [IV-499, 2-Methyl-1-(2-(6-(trifluoromethyl)imidazo[1,2-a]pyrazin-3-yl)pyrimidin-4-yl)piperidine-3-carboxamide] |
| < 10 | 500 to 5000 | CC1CC(C(N)=O)C(C)N(c2ccnc(-c3cnc4cnc(C(F)(F)F)cn34)n2)C1 (single isomer, unassigned) [IV-501, 2,5-Dimethyl-1-(2-(6-(trifluoromethyl)imidazo[1,2-a]pyrazin-3-yl)pyrimidin-4-yl)piperidine-3-carboxamide] |
| < 10 | 500 to 5000 | CC1CN(c2ccnc(-c3cnc4cnc(C(F)(F)F)cn34)n2)C(C)C(c2cnc[nH]2)N1 (single isomer, unassigned) [IV-538, 3-(4-(3-(1H-Imidazol-5-yl)-2,5-dimethylpiperazin-1-yl)pyrimidin-2-yl)-6-(trifluoromethyl)imidazo[1,2-a]pyrazine] |
| < 10 | 500 to 5000 | FC(F)(F)c1cn2c(-c3nccc(N4CCC(c5cn[nH]c5)C4)n3)cnc2cn1 (single isomer, unassigned) [IV-540, 3-(4-(3-(1H-Pyrazol-4-yl)pyrrolidin-1-yl)pyrimidin-2-yl)-6-(trifluoromethyl)imidazo[1,2-a]pyrazine] |
| < 10 | 500 to 5000 | FC(F)(F)c1cn2c(-c3nccc(N4CCCC(c5cn[nH]c5)C4)n3)cnc2cn1 (single isomer, unassigned) [IV-545, 3-(4-(3-(1H-Pyrazol-4-yl)piperidin-1-yl)pyrimidin-2-yl)-6-(trifluoromethyl)imidazo[1,2-a]pyrazine] |
| < 10 | < 500 | FC(F)(F)c1cn2c(-c3nccc(N4CCCC(c5cn[nH]c5)C4)n3)cnc2cn1 (single isomer, unassigned) [IV-546, 3-(4-(3-(1H-Pyrazol-4-yl)piperidin-1-yl)pyrimidin-2-yl)-6-(trifluoromethyl)imidazo[1,2-a]pyrazine] |
| < 10 | < 500 | Fc1n[nH]cc1C1CCN(c2ccnc(-c3cnc4cnc(C(F)(F)F)cn34)n2)C1 (single isomer, unassigned) [IV-562, 3-(4-(3-(3-Fluoro-1H-pyrazol-4-yl)pyrrolidin-1-yl)pyrimidin-2-yl)-6-(trifluoromethyl)imidazo[1,2-a]pyrazine] |
| < 10 | 500 to 5000 | Fc1n[nH]cc1C1CCN(c2ccnc(-c3cnc4cnc(C(F)(F)F)cn34)n2)C1 (single isomer, unassigned) [IV-563, 3-(4-(3-(3-Fluoro-1H-pyrazol-4-yl)pyrrolidin-1-yl)pyrimidin-2-yl)-6-(trifluoromethyl)imidazo[1,2-a]pyrazine] |
| < 10 | > 5000 | CP(C)(=O)C1CC(c2cn[nH]c2)CN(c2ccnc(-c3cnc4cnc(C(F)(F)F)cn34)n2)C1 (single isomer, unassigned) [IV-592, (5-(1H-Pyrazol-4-yl)-1-(2-(6-(trifluoromethyl)imidazo[1,2-a]pyrazin-3-yl)pyrimidin-4-yl)piperidin-3-yl)dimethylphosphine oxide] |
| < 10 | 500 to 5000 | OC1CCN(c2ccnc(-c3cnc4cnc(C(F)(F)F)cn34)n2)CC1c1cn[nH]c1 (single isomer, unassigned) [IV-621, 3-(1H-Pyrazol-4-yl)-1-(2-(6-(trifluoromethyl)imidazo[1,2-a]pyrazin-3-yl)pyrimidin-4-yl)piperidin-4-ol] |
| < 10 | 500 to 5000 | OC1CCN(c2ccnc(-c3cnc4cnc(C(F)(F)F)cn34)n2)CC1c1cn[nH]c1 (single isomer, unassigned) [IV-622, 3-(1H-Pyrazol-4-yl)-1-(2-(6-(trifluoromethyl)imidazo[1,2-a]pyrazin-3-yl)pyrimidin-4-yl)piperidin-4-ol] |
| < 10 | < 500 | OC1CCN(c2ccnc(-c3cnc4cnc(C(F)(F)F)cn34)n2)CC1c1cn[nH]c1 (single isomer, unassigned) [IV-623, 3-(1H-Pyrazol-4-yl)-1-(2-(6-(trifluoromethyl)imidazo[1,2-a]pyrazin-3-yl)pyrimidin-4-yl)piperidin-4-ol] |
| < 10 | 500 to 5000 | FC(F)(F)c1cn2c(-c3nccc(N4CCC(c5c[nH]nc5C(F)(F)F)C4)n3)cnc2cn1 (single isomer, unassigned) [IV-629, 6-(Trifluoromethyl)-3-(4-(3-(3-(trifluoromethyl)-1H-pyrazol-4-yl)pyrrolidin-1-yl)pyrimidin-2-yl)imidazo[1,2-a]pyrazine] |
| < 10 | 500 to 5000 | CC1C(c2cn[nH]c2)N(CCO)C(C)CN1c1ccnc(-c2cnc3cnc(C(F)(F)F)cn23)n1 (single isomer, unassigned) [IV-636, 2-(3,6-Dimethyl-2-(1H-pyrazol-4-yl)-4-(2-(6-(trifluoromethyl)imidazo[1,2-a]pyrazin-3-yl)pyrimidin-4-yl)piperazin-1-yl)ethan-1-ol] |
